Measured values published in patent US12157730B2, “Heteroaryl derivative, method for producing same, and pharmaceutical composition comprising same as effective component” (VORONOI INC., priority 2019, dated 2024).

What was measured:
Assay type in all cases: cell-based
[1] = target: T1, Ba/F3 cell EGFR L858R/T790M (Homo sapiens, UniProt P00533, L858R/T790M); assay: Ba/F3 cell proliferation suppression, EGFR L858R/T790M; settings: 72 hours after treatment, CellTiter-Glo
T1 construct: expressed in transfected cells; host or cells: Ba/F3
Experimental: (§1) The following experiment was carried out to evaluate the suppression activity of the compounds according to the present invention against proliferation of Ba/F3 and lung cancer cells which express EGFR mutations.
(§2) Of the cancer cell lines expressing the EGFR gene, A549 was cultured after adding 10% FBS (HyClone) to DMEM (Invitrogen), and RPMI-1640 (Invitrogen) with 10% FBS was used for the other cancer cells. For the Ba/F3 cells, RPMI-1640 with 10% FBS and 5 ng/ml IL-3 (R&D Systems) was used. The transduced Ba/F3 cells were cultured by adding 1 ug/ml puromycin (Invitrogen) to the same medium.
(§3) 24 hours before treatment with the compounds, 3000 to 5000 cells were distributed into each well of a white clear bottom 96 well plate (Corning). The compounds were diluted in dimethylsulfoxide (dilution ratio 3:1; 12 concentrations total) and injected 0.5 ul each for a final concentration of 0.3 nM to 50 um. As for measurement of live cells, 72 hours after treatment with the compounds, a CellTiter-Glo luminescent cell-viability reagent (Promega) was used to store the cells at room temperature for 10 minutes, followed by measurement of luminescence using a reader (SynergyNeo, Biotek). Each test was repeated three times.
(§4) The result was calculated as a cell growth ratio (%) compared to a control. The program GraphPad Prism version 5.0 was used to draw the graphs and calculate the GI50 values.

[2] = target: T2, Ba/F3 cell EGFR Exon20 ins NPH (Homo sapiens, UniProt P00533, INS773NPH); assay: Ba/F3 cell proliferation suppression, EGFR Exon20 ins NPH; settings: for GI50: 72 hours after treatment, CellTiter-Glo; for Ba/F3 (NPH) Activity: GI50 class, Ba/F3 cell line with NPH inserted at Exon20 of EGFR, 72 hours
T2 construct: expressed in transfected cells; host or cells: Ba/F3
Method in brief: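 After 72 h compound exposure (twelve 3-fold steps, 0.3 nM–50 um final), live cells were measured by CellTiter-Glo luminescence and growth expressed as % of control to derive GI50. Cells were seeded at 3000–5000 per well a day earlier; Ba/F3 medium contained IL-3; three repeats.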

[3] = system: Ba/F3 cell naive; assay: Ba/F3 cell proliferation suppression, naive; settings: Mus musculus, BaF3; 72 hours after treatment, CellTiter-Glo
Experimental: as §1, §2, §3, §4

Row | SMILES | GI50 [1] [µM] | GI50 [2] [µM] | Ba/F3 (NPH) Activity [2] | GI50 [3] [µM]
1 | C=CC(=O)Nc1cc(Nc2cc(N3OCC[C@@H]3c3cc(F)cc(F)c3)ncn2)c(OC)cc1N1CCC(N2CC[C@H](N(C)C)C2)CC1 [Example 250, N-(5-((6-((R)-3-(3,5-difluorophenyl)isoxazolidine-2-yl)pyrimidine-4-yl)amino)-2-(4-((S)-3-(dimethylamino)pyrolidine-1-yl)piperidine-1-yl)-4-methoxyphenyl) acrylamide] | < 0.05 | < 0.05 | A (GI50 < 50 nM) | ≥ 5
2 | C=CC(=O)Nc1cc(Nc2cc(N3OCC[C@@H]3c3cc(F)cc(F)c3)ncn2)c(OC)cc1N1CCC(N2CCN(C(C)=O)CC2)CC1 [Example 251, N-(2-(4-(4-acetylpiperazine-1-yl)piperidine-1-yl)-5-((6-((R)-3-(3,5-difluorophenyl)isoxazolidine-2-yl)pyrimidine-4-yl)amino)-4-methoxyphenyl) acrylamide] | < 0.05 | < 0.05 | A (GI50 < 50 nM) | ≥ 5
3 | C=CC(=O)Nc1cc(Nc2cc(N3OCC[C@@H]3c3cc(F)cc(F)c3)ncn2)c(OC)cc1N1CCC(N2C3CC2CN(CC)C3)CC1 [Example 249, N-(5-((6-((R)-3-(3,5-difluorophenyl)isoxazolidine-2-yl)pyrimidine-4-yl)amino)-2-(4-(3-ethyl-3,6-diazabicyclo[3.1.1]heptane-6-yl)piperidine-1-yl)-4-methoxyphenyl) acrylamide] | < 0.05 | < 0.05 | A (GI50 < 50 nM) | ≥ 5
4 | C=CC(=O)Nc1cc(Nc2cc(N3OCC[C@@H]3c3cc(F)ccc3F)ncn2)c(OC)cc1N1CCC(N2CCO[C@H](C)C2)CC1 [compound 822, N-(5-((6-((R)-3-(2,5-difluorophenyl)isoxazolidine-2-yl)pyrimidine-4-yl)amino)-4-methoxy-2-(4-((R)-2-methylmorpholino)piperidine-1-yl)phenyl) acrylamide] |  |  | A (GI50 < 50 nM) | 
5 | C=CC(=O)Nc1cc(Nc2cc(N3OCC[C@@H]3c3ccc(Cl)c(Cl)c3)ncn2)c(OC)cc1N1CCC(N2CCN(C)CC2)CC1 [compound 681] |  |  | A (GI50 < 50 nM) | 
6 | C=CC(=O)Nc1cc(Nc2cc(N3OCC[C@@H]3c3cccc(C#N)c3)ncn2)c(OC)cc1N1CCC(N2CCN(CCC)CC2)CC1 [compound 432, N-(5-((6-((R)-3-(3-cyanophenyl)isoxazolidine-2-yl)pyrimidine-4-yl)amino)-4-methoxy-2-(4-(4-propylpiperazine-1-yl)piperidine-1-yl)phenyl) acrylamide] |  |  | A (GI50 < 50 nM) | 
7 | C=CC(=O)Nc1cc(Nc2cc(N3OCC[C@@H]3Cc3cccc(F)c3C)ncn2)c(OC)cc1N1CCC(N2CCN(C3CC3)[C@@H](C)C2)CC1 [compound 1005, N-(2-(4-((S)-4-cyclopropyl-3-methylpiperazine-1-yl)piperidine-1-yl)-5-((6-((S)-3-(3-fluoro-2-methylbenzyl)isoxazolidine-2-yl)pyrimidine-4-yl)amino)-4-methoxyphenyl) acrylamide] |  |  | A (GI50 < 50 nM) | 
8 | C=CC(=O)Nc1cc(Nc2cc(N3OCC[C@@H]3c3ccc(F)cc3F)ncn2)c(OC)cc1N1CCC(N2CCN(C3CCOCC3)CC2)CC1 [Example 207, N-(5-((6-((R)-3-(2,4-difluorophenyl)isoxazolidine-2-yl)pyrimidine-4-yl)amino)-4-methoxy-2-(4-(4-(tetrahydro-2H-pyran-4-yl)piperazine-1-yl)piperidine-1-yl)phenyl)acrylamide] |  |  | A (GI50 < 50 nM) | 
9 | C=CC(=O)Nc1cc(Nc2cc(N3OCC[C@@H]3c3cccc(Cl)c3Cl)ncn2)c(OC)cc1N(C)CCN(C)C [compound 516, N-(5-((6-((R)-3-(2,3-dichlorophenyl)isoxazolidine-2-yl)pyrimidine-4-yl)amino)-2-((2-(dimethylamino)ethyl)(methyl)amino)-4-methoxyphenyl) acrylamide] |  |  | A (GI50 < 50 nM) | 
10 | C=CC(=O)Nc1cc(Nc2cc(N3OCC[C@@H]3c3cc(F)ccc3F)ncn2)c(OC)cc1N1C[C@H]2CCN(C)[C@H]2C1 [compound 892, N-(5-((6-((R)-3-(2,5-difluorophenyl)isoxazolidine-2-yl)pyrimidine-4-yl)amino)-4-methoxy-2-((3aR,6aR)-1-methylhexahydropyrrolo [3,4-b]pyrrole-5(1H)-yl)phenyl) acrylamide] |  |  | A (GI50 < 50 nM) | 
11 | C=CC(=O)Nc1cc(Nc2cc(N3OCC[C@@H]3Cc3cc(F)cc(F)c3)ncn2)c(OC)cc1N1CCC(N2C[C@@H]3C[C@H]2CO3)CC1 [compound 1035, N-(2-(4-((1S,4S)-2-oxa-5-azabicyclo [2.2.1]heptane-5-yl)piperidine-1-yl)-5-((6-((S)-3-(3,5-difluorobenzyl)isoxazolidine-2-yl)pyrimidine-4-yl)amino)-4-methoxyphenyl) acrylamide] |  |  | A (GI50 < 50 nM) | 
12 | C=CC(=O)Nc1cc(Nc2cc(N3OCC[C@@H]3c3cccc4ccccc34)ncn2)c(OC)cc1N1CCC(N2CCN(CC)CC2)CC1 [compound 484, N-(2-(4-(4-ethylpiperazine-1-yl)piperidine-1-yl)-4-methoxy-5-((6-((R)-3-(naphthalene-1-yl)isoxazolidine-2-yl)pyrimidine-4-yl)amino)phenyl)acrylamide] |  |  | B (50 nM ≤ GI50 < 500 nM) | 
13 | C=CC(=O)Nc1cc(Nc2cc(N3OCC[C@@H]3c3ccc(F)cc3F)ncn2)c(OC)cc1N1CCC(N2CCN(CC3CC3)CC2)CC1 [Example 203, N-(2-(4-(4-(cyclopropylmethyl)piperazine-1-yl)piperidine-1-yl)-5-((6-((R)-3-(2,4-difluorophenyl)isoxazolidine-2-yl)pyrimidine-4-yl)amino)-4-methoxyphenyl) acrylamide] |  |  | A (GI50 < 50 nM) | 
14 | C=CC(=O)Nc1cc(Nc2cc(N3OCC[C@@H]3c3cccc(F)c3F)ncn2)c(OC)cc1N1CCC(N2CCN(C)[C@H](C)C2)CC1 [compound 336, N-(5-((6-((R)-3-(2,3-difluorophenyl)isoxazolidine-2-yl)pyrimidine-4-yl)amino)-2-(4-((R)-3,4-dimethylpiperazine-1-yl)piperidine-1-yl)-4-methoxyphenyl) acrylamide] |  |  | A (GI50 < 50 nM) | 
15 | C=CC(=O)Nc1cc(Nc2cc(N3OCC[C@@H]3Cc3cccc(N(C)C)c3)ncn2)c(OC)cc1N1CCC(N2CCN(C3CC3)[C@@H](C)C2)CC1 [compound 1045, N-(2-(4-((S)-4-cyclopropyl-3-methylpiperazine-1-yl)piperidine-1-yl)-5-((6-((S)-3-(3-(dimethylamino)benzyl)isoxazolidine-2-yl)pyrimidine-4-yl)amino)-4-methoxyphenyl) acrylamide] |  |  | B (50 nM ≤ GI50 < 500 nM) | 
16 | C=CC(=O)Nc1cc(Nc2cc(N3OCC[C@@H]3Cc3cccc(F)c3C)ncn2)c(OC)cc1N(C)CCN(C)C [compound 1000, N-(2-((2-(dimethylamino)ethyl) (methyl)amino)-5-((6-((S)-3-(3-fluoro-2-methylbenzyl)isoxazolidine-2-yl)pyrimidine-4-yl)amino)-4-methoxyphenyl) acrylamide] |  |  | A (GI50 < 50 nM) | 
17 | C=CC(=O)Nc1cc(Nc2cc(N3OCC[C@@H]3c3cccc(C)c3F)ncn2)c(OC)cc1N1CCC(N2C[C@@H]3C[C@H]2CO3)CC1 [compound 362, N-(2-(4-((1S,4S)-2-oxa-5-azabicyclo[2.2.1]heptane-5-yl)piperidine-1-yl)-5-((6-((R)-3-(2-fluoro-3-methylphenyl)isoxazolidine-2-yl)pyrimidine-4-yl)amino)-4-methoxyphenyl) acrylamide] |  |  | A (GI50 < 50 nM) | 
18 | C=CC(=O)Nc1cc(Nc2cc(N3OCC[C@@H]3c3ccc(F)c(Cl)c3)ncn2)c(OC)cc1N1CCC(N2CCN(C)[C@H](C)C2)CC1 [compound 901, N-(5-((6-((R)-3-(3-chloro-4-fluorophenyl)isoxazolidine-2-yl)pyrimidine-4-yl)amino)-2-(4-((R)-3,4-dimethylpiperazine-1-yl)piperidine-1-yl)-4-methoxyphenyl) acrylamide] |  |  | A (GI50 < 50 nM) | 
19 | C=CC(=O)Nc1cc(Nc2cc(N3OCC[C@@H]3c3cccc4ccccc34)ncn2)c(OC)cc1N1CCC(N2CCN(C)CC2)CC1 [compound 482, N-(4-methoxy-2-(4-(4-methylpiperazine-1-yl)piperidine-1-yl)-5-((6-((R)-3-(naphthalene-1-yl)isoxazolidine-2-yl)pyrimidine-4-yl)amino)phenyl)acrylamide] |  |  | A (GI50 < 50 nM) | 
